The subject of this assay is AP-1 induced transcriptional activity. The assay is described as follows: Cellular Transrepressional Assay (AP-1 luciferase reporter, PMA-activated A549 cells). The conditions noted are these: for AP-1 Max % inh (Cellular Transrepression Assay) / Emax: maximum inhibition; for Emax: A549, 7 h, read-out: AP-1 Max % inh (Cellular Transrepression Assay). The class given is cell-based. On the procedure:
Cellular Transrepressional Assay
To measure the ability of test molecules to inhibit AP-1 induced transcriptional activity we utilized an A549 cell which was stably transfected with a plasmid containing 7× AP-1 DNA binding sites (pAP-1-Luc plasmid, Stratagene Co. La Jolla, Calif.) followed by the gene for luciferase. Cells were activated with 10 ng/ml of […] (PMA) plus or minus test molecules for 7 hours. After 7 hours a luciferase reagent was added to measure luciferase enzymatic activity in the cell. After a 10 minute incubation of luciferase reagent with cells, luminescence was measured in a TopCount luminescence counter. Repression of AP-1 activity was calculated as the percentage decrease in the signal induced by PMA alone. Test molecules were analyzed in the concentration range from 0.1 nM to 40 μM. EC50s were determined by using standard curve fitting methods such as Excel fit (Microsoft Co.).

The mark [1] stands for this setting: Homo sapiens, Cellular Transrepression Assay.
Setting [2] is: Homo sapiens, A549, Cellular Transrepression Assay.

Regarding `CC(C)(C(=O)Nc1nncs1)[C@H]1c2ccccc2Oc2nc(-c3ccc(C(=O)N4CCCCC4)c(Cl)c3)ccc21` [Example 264], under “Cellular Transrepression Assay”, the EC50 was determined as 115 nM and the “AP-1 Max % inh (Cellular Transrepression Assay)” value (from here on “AP-1 Max % inh”) was determined as 33.74%.

As for `CC(C)(C(=O)Nc1nncs1)C1c2ccccc2Oc2nc(NCc3ccccc3)ccc21` (centres unmarked) [Example 133], under setting [1], the Emax came out at 61.3%. Under setting [2], this compound came in with an EC50 of 585 nM.

Consider `Cc1nsc(NC(=O)C(C)(C)[C@H]2c3ccccc3Oc3nc(-c4ccc(C(=O)N5CCOCC5)cc4)ccc32)n1` [Example 478], for which the Emax under setting [1] was 41.8%. Moreover, under setting [2], a half-maximal effect (EC50) was put at 16 nM.

Regarding `CC(C)Oc1ccc(-c2ccc3c(n2)Oc2ccccc2C3C(C)(C)C(=O)Nc2nncs2)cc1F` (centres unmarked) [Example 211], where the note is “Cellular Transrepression Assay”, a half-maximal effect (EC50) was put at 41.3 nM and the “AP-1 Max % inh” value stood at 49.63%.

In the case of `CCC(C)NC(=O)Oc1ccc2c(c1)Oc1ccccc1C2C(C)(C)C(=O)Nc1nncs1` (centres unmarked) [Example 383], for the setting “Cellular Transrepression Assay”, a half-maximal effect (EC50) was put at 46.3 nM and the “AP-1 Max % inh” value stood at 41.78%.

As for `CCN(C)C(=O)c1ccc(-c2ccc3c(n2)Oc2ccccc2[C@@H]3C(C)(C)C(=O)Nc2ncns2)cc1F` [Example 454], the Emax under setting [1] was determined as 49.5%. For the same compound, the EC50 under setting [2] came to 25.3 nM.

In the case of `CC(C)(C(=O)Nc1nccs1)[C@H]1c2ccccc2Oc2cc(O)ccc21` [Example 89], under setting [1], the Emax was determined as 68.3%. In addition, the response under setting [2] was half-maximal at 18.1 nM (EC50).

Consider `COc1ccc(Cc2csc(NC(=O)C(C)(C)[C@H]3c4ccccc4Oc4cc(OC)ccc43)n2)cc1` [Example 57], for which, under setting [1], the Emax was 74.8%. The compound also gave an EC50 under setting [2] of 11.5 nM.

Regarding `CC(C)(C(=O)Nc1nncs1)[C@H]1c2ccccc2Oc2nc(-c3ccc(C(=O)N4CCC(F)(F)CC4)cc3)ccc21` [Example 300], under setting [1], the Emax stood at 61.8%. The compound further showed an EC50 under setting [2] of 14.8 nM.

With `CC(C)(C(=O)Nc1nc(Cc2ccc(-c3ccncc3)cc2)cs1)C1c2ccccc2CCc2ccccc21` [Example 24], under setting [1], the Emax was found to be 78.8%. Moreover, the EC50 under setting [2] was 15.7 nM.

Consider `COC[C@H]1CCCN1C(=O)c1ccc(-c2ccc3c(n2)Oc2ccccc2[C@@H]3C(C)(C)C(=O)Nc2nncs2)cc1Cl` [Example 330], for which, under setting [1], the Emax is 60.6%. For the same compound, a half-maximal response under setting [2] (EC50) required 21.9 nM.

`COc1ccc(Cc2csc(NC(=O)C(C)(C)C3c4ccccc4Oc4cc(OC)ccc43)n2)cc1` (centres unmarked) [Example 53]: for the setting “Cellular Transrepression Assay”, a half-maximal response (EC50) required 78.5 nM and the “AP-1 Max % inh” value stood at 72.00%.

As for `CC(C)(C(=O)Nc1nnc(CF)s1)[C@H]1c2ccccc2Oc2nc(-c3ccc(C(=O)N4CCCC4)cc3)ccc21` [Example 433], the Emax under setting [1] is 46.2%. The same compound gave an EC50 under setting [2] of 41 nM.

On to `CC(C)(C(=O)Nc1nc(-c2ccc(F)c3ccccc23)cs1)C1c2ccccc2S(=O)(=O)c2ccccc21` [Example 11], for which, under setting [1], the Emax worked out at 68.5%. In addition, a half-maximal effect under setting [2] (EC50) was put at 882 nM.

In the case of `Cc1ccc(-c2csc(NC(=O)C(C)(C)C3c4ccccc4Oc4ccccc43)n2)c2ccccc12` [Example 31], under setting [1], the Emax amounted to 69.4%. Further, under setting [2], the midpoint of the response, the EC50, lay at 179 nM.

With `CCCCc1ccc(-c2ccc3c(n2)Oc2ccccc2C3C(C)(C)C(=O)Nc2nncs2)cc1` (centres unmarked) [Example 212], where the note is “Cellular Transrepression Assay”, the midpoint of the response, the EC50, lay at 19.6 nM and the “AP-1 Max % inh” value came to 63.05%.

As to `CC(C)(C(=O)Nc1nc(C(=O)c2ccccc2)cs1)C1c2ccccc2Oc2ccccc21` [Example 44], the Emax under setting [1] is 69.3%.

`Cc1ccc(-c2csc(NC(=O)CC3c4ccccc4Sc4ccccc43)n2)c2ccccc12` [Example 27]: under setting [1], the Emax amounted to 15%.

`CC(C)(C(=O)Nc1nnc(C#N)s1)[C@H]1c2ccccc2Oc2nc(-c3ccc(C(=O)N4CCCC4)c(F)c3)ccc21` [Example 435]: the Emax under setting [1] was 27.9%. Besides, the EC50 under setting [2] turned out to be 292 nM.

In the case of `CSc1ccc(-c2ccc3c(n2)Oc2ccccc2C3C(C)(C)C(=O)Nc2nncs2)cc1` (centres unmarked) [Example 199], where the note is “Cellular Transrepression Assay”, a half-maximal effect (EC50) was put at 27.6 nM and the “AP-1 Max % inh” value was determined as 48.94%.

`CC(C)C(O)c1ccc(-c2ccc3c(n2)Oc2ccccc2[C@@H]3C(C)(C)C(=O)Nc2nncs2)cc1` (some centres unmarked) [Example 240]: the Emax under setting [1] turned out to be 61.7%. Under setting [2], this compound returned an EC50 of 51.9 nM.

Regarding `CC(C)(C(=O)Nc1nncs1)C1c2ccccc2Oc2cc(OC(=O)NCc3ccc(F)cc3)ccc21` (centres unmarked) [Example 377], under “Cellular Transrepression Assay”, the EC50 was 32.7 nM and the “AP-1 Max % inh” value turned out to be 49.10%.

Consider `CC(C)(C(=O)Nc1nncs1)[C@H]1c2ccccc2Oc2nc(-c3ccc(C(=O)N4CCCC4C#N)cc3)ccc21` (some centres unmarked) [Example 316], for which, under setting [1], the Emax is 35.9%. Under setting [2], this compound returned an EC50 of 60.9 nM.

As for `CCN(C)C(=O)c1ccc(-c2ccc3c(n2)Oc2ccccc2[C@@H]3C(C)(C)C(=O)Nc2ncns2)cc1` [Example 467], the Emax under setting [1] was found to be 57.5%. Also, under setting [2], the response was half-maximal at 15 nM (EC50).

With `CC(C)Cc1ccc(-c2ccc3c(n2)Oc2ccccc2C3C(C)(C)C(=O)Nc2nncs2)cc1` (centres unmarked) [Example 208], for the setting “Cellular Transrepression Assay”, it took 12.2 nM to reach a half-maximal effect (EC50) and the “AP-1 Max % inh” value is given as 54.08%.

Regarding `CC(C)(C(=O)Nc1nncs1)[C@H]1c2ccccc2Oc2nc(-c3ccc(C(=O)N4CCS(=O)(=O)CC4)cc3)ccc21` [Example 310], under setting [1], the Emax stood at 52.9%. In addition, the EC50 under setting [2] worked out at 786 nM.

`CCNS(=O)(=O)c1ccc(-c2ccc3c(n2)Oc2ccccc2C3C(C)(C)C(=O)Nc2nncs2)cc1` (centres unmarked) [Example 234]: under “Cellular Transrepression Assay”, the EC50 was 405 nM and the “AP-1 Max % inh” value is recorded as 27.08%.

Regarding `CC(C)(C(=O)Nc1nncs1)[C@H]1c2ccccc2Oc2nc(NC(=O)NCCN3CCCC3)ccc21` [Example 401], the Emax under setting [1] stood at 35.1%. Moreover, the EC50 under setting [2] came to 778 nM.

For the compound `CN(C)C(=O)c1ccc(-c2ccc3c(n2)Oc2ccccc2[C@@H]3C(C)(C)C(=O)Nc2nnc(CF)s2)cc1` [Example 432], under setting [1], the Emax stood at 40.2%. This compound also registered an EC50 under setting [2] of 52.7 nM.

Take `CC(C)(C(=O)Nc1nncs1)C1c2ccccc2Oc2nc(-c3ccc(CC(=O)O)cc3)ccc21` (centres unmarked) [Example 231]: under “Cellular Transrepression Assay”, a half-maximal response (EC50) required 733 nM and the “AP-1 Max % inh” value is reported as 38.36%.

With `CC(C)Oc1ccc(-c2ccc3c(n2)Oc2ccccc2[C@@H]3C(C)(C)C(=O)Nc2ncns2)cc1` [Example 458], under setting [1], the Emax came out at 35.2%. Further, the EC50 under setting [2] came out at 53.2 nM.

Take `CN(C)C(=O)c1ccc(-c2ccc3c(n2)Oc2ccccc2[C@@H]3C(C)(C)C(=O)Nc2nncs2)cc1Cl` [Example 260]: the Emax under setting [1] stood at 67.3%. Under setting [2], this compound came in with an EC50 of 23.1 nM.

With `CN(C)C(=O)c1ccc(-c2ccc3c(n2)Oc2ccccc2[C@H]3C2(C(=O)Nc3nncs3)CCC2)cc1` (single isomer, unassigned) [Example 481], under setting [1], the Emax is 33.8%. This compound also gave an EC50 under setting [2] of 579 nM.

Regarding `CC(C)(C(=O)Nc1nncs1)C1c2ccccc2Oc2nc(N3CCCC3)ccc21` (centres unmarked) [Example 130], the Emax under setting [1] is 31.5%. In addition, the EC50 under setting [2] was 111 nM.

On to `CCc1cnc(-c2ccc3c(c2)Oc2ccccc2[C@@H]3C(C)(C)C(=O)Nc2nncs2)nc1` [Example 111], for which the Emax under setting [1] stood at 40.7%. For the same compound, the response under setting [2] was half-maximal at 14.6 nM (EC50).

Turning to `CC(C)(C(=O)Nc1ncns1)[C@H]1c2ccccc2Oc2nc(-c3ccc(C(=O)N4CCOCC4)cc3)ccc21` [Example 457], the Emax under setting [1] was 51.9%. The same compound displayed an EC50 under setting [2] of 16.6 nM.

With `CC(C)(C(=O)Nc1nncs1)[C@H]1c2ccccc2Oc2nc(-c3ccc(C(=O)N4CC(O)C4)cc3)ccc21` [Example 315], the Emax under setting [1] was found to be 40.9%. The same compound registered an EC50 under setting [2] of 750 nM.

`CC(C)N(C)C(=O)c1ccc(-c2ccc3c(n2)Oc2ccccc2[C@@H]3C(C)(C)C(=O)Nc2nncs2)cc1F` [Example 329]: for the setting “Cellular Transrepression Assay”, the EC50 was determined as 583 nM and the “AP-1 Max % inh” value is 40.81%.

Turning to `Cn1cc(-c2ccc(Cc3csc(NC(=O)C(C)(C)C4c5ccccc5Oc5ccccc54)n3)cc2)cn1` [Example 42], under setting [1], the Emax is 73.4%. Besides, the response under setting [2] was half-maximal at 3.7 nM (EC50).

`CCCC/C=C/c1ccc2c(n1)Oc1ccccc1[C@@H]2C(C)(C)C(=O)Nc1nncs1` [Example 436]: the Emax under setting [1] is 44%. Also, a half-maximal response under setting [2] (EC50) required 95.7 nM.

Take `CCCCNC(=O)Oc1ccc2c(c1)Oc1ccccc1C2C(C)(C)C(=O)Nc1nncs1` (centres unmarked) [Example 388]: the Emax under setting [1] worked out at 57.6%. Under setting [2], this compound came in with an EC50 of 34.2 nM.

As to `Cc1ccc(-c2csc(NC(=O)C(C)(C)C3c4ccccc4Sc4ccccc43)n2)c2ccccc12` [Example 7], the Emax under setting [1] was 64.9%. The compound also had an EC50 under setting [2] of 303 nM.

Take `COc1ccc2c(c1)Oc1ccccc1C2C(C)(C)C(=O)Nc1nc(Cc2ccc(-c3ccncc3)cc2)cs1` (centres unmarked) [Example 51]: under setting [1], the Emax is 77.9%. The 50% effective concentration (EC50) under setting [2] came to 6.87 nM.

As for `CC(C)(C(=O)Nc1nnc(C(N)=O)s1)[C@H]1c2ccccc2Oc2nc(-c3ccc(C(=O)N4CCCC4)c(F)c3)ccc21` [Example 418], under setting [1], the Emax came to 29.1%. The compound further gave an EC50 under setting [2] of 82.1 nM.

Regarding `CC(C)(C(=O)Nc1nncs1)C1c2ccccc2Oc2cc(-c3nn[nH]n3)ccc21` (centres unmarked) [Example 126], the Emax under setting [1] is 30.8%. The same compound showed an EC50 under setting [2] of 49.7 nM.

With `O=C(CC1c2ccccc2Oc2ccccc21)Nc1nc(-c2ccc(F)c3ccccc23)cs1` [Example 2], the Emax under setting [1] is 42.7%.

Take `Cc1cnc(NC(=O)C(C)(C)[C@H]2c3ccccc3Oc3cc(O)ccc32)s1` [Example 87]: the Emax under setting [1] came to 46%. The compound further yielded a 50% effective concentration (EC50) under setting [2] of 91.1 nM.

For `CCN(C)C(=O)c1ccc(-c2ccc3c(n2)Oc2ccccc2[C@@H]3C(C)(C)C(=O)Nc2nnc(C)s2)cc1` [Example 464], the Emax under setting [1] amounted to 54%. The EC50 under setting [2] was determined as 18.2 nM.

`CC(C)(C(=O)Nc1nc(Cc2ccc(-c3ccncc3)cc2)cs1)C1c2ccccc2Oc2ncccc21` (centres unmarked) [Example 64]: the Emax under setting [1] is 79.3%. This compound registered an EC50 under setting [2] of 19.9 nM.
